The source of these data is ChEMBL document CHEMBL1126226, “The discovery of a new structural class of potent orally active leukotriene D4 antagonists” (Bioorg Med Chem Lett, 1992).

A short description of series [1]: Plasma clearance was estimated from the AUC after 5 mg/kg intravenous dosing in rats. In kind it is ADME, organism-based. Set-up: dose 5 mg/kg, route intravenous. Conditions: rat.
Series [2] concerns the target T1, Cysteinyl leukotriene receptor 1 (Cavia porcellus, UniProt Q2NNR5).
T1 sequence (Q2NNR5 whole entry): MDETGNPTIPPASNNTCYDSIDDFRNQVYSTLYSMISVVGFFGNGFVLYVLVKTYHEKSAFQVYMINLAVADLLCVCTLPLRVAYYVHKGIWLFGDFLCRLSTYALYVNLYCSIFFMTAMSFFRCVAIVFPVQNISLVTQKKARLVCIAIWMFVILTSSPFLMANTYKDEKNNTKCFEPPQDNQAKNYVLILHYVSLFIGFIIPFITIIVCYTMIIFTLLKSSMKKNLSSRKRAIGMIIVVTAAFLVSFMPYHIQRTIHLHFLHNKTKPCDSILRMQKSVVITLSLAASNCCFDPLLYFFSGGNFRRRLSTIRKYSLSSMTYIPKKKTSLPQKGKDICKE
Description: Inhibitory concentration against [3H]Leukotriene D4 binding to guinea-pig lung membranes was determined; experiment 2. In kind it is tissue-based, Membrane.

In series [3] the target is T1, Cysteinyl leukotriene receptor 1. Description: Inhibitory concentration against [3H]Leukotriene D4 binding to guinea-pig lung membranes was determined; experiment 1. Type of series: tissue-based, Membrane.
Series [4] deals with Mus musculus. Description: The compound was tested for average percentage increase of fatty acyl Co-A oxidase activity after 4 days of dosing mice at 400 mg/kg peroral administration. Type of series: functional. As to conditions: route oral.
The target of series [5] is T1, Cysteinyl leukotriene receptor 1. Description: Inhibition of Leukotriene D4 induced contraction of guinea-pig trachea was determined. In kind it is functional, tissue-based. As to conditions: read-out: pA2 (converted).
The subject of series [6] is Rattus norvegicus. Description: Percent inhibition of Antigen induced dyspnea in hyperactive rats by the compound at 0.5 mg/kg concentration was determined. In kind it is functional.
Series [7] deals with T1, Cysteinyl leukotriene receptor 1. Description: Inhibitory concentration against [3H]Leukotriene D4 binding to guinea-pig lung membranes was determined. In kind it is tissue-based, Membrane.
Series [8] shares this target. Description: Inhibitory concentration against [3H]Leukotriene D4 binding to guinea-pig lung membranes was determined (Experiment 2). Type of series: tissue-based, Membrane.
Series [9] shares this target. Description: Inhibitory concentration against [3H]Leukotriene D4 binding to guinea-pig lung membranes was determined (Experiment 1). Type of series: tissue-based, Membrane.
For series [10], the system named is Mus musculus. Description: The compound was tested for average percentage increase of fatty acyl Co-A oxidase activity after 4 days of dosing in mice at 400 mg/kg peroral administration. Type of series: functional. Conditions: route oral.
Series [11] can be described thus: The apparent total plasma clearance in monkey. In kind it is ADME, organism-based. Conditions: cercopithecidae.
The test system of series [12] is Monkey. Description: Inhibition of Leukotriene D4 induced bronchoconstriction in squirrel monkey, 4 hr pretreatment, 0.1 mg/kg peroral administration. Type of series: functional. Conditions: in Primates, route oral.
For another series, the system named is Cavia porcellus. Description: Effective dose in guinea pig on intravenous administration. In kind it is functional.
For series [13], the system named is Rattus norvegicus. Description: Percent inhibition of Antigen induced dyspnea in hyperractive rats by the compound at 0.5 mg/kg concentration was determined after peroral administration, 2 hr pretreatment. As to conditions: route oral. Type of series: functional.
Series [14] deals with Mus musculus. Description: The compound was tested for average percentage increase of fatty acyl Co-A oxidase activity after 4 days of dosing in mice at 100 mg/kg peroral administration. Conditions: route oral. In kind it is functional.
For series [15], the system named is Monkey. Description: Inhibition of Leukotriene D4 induced bronchoconstriction in squirrel monkey, 4 hr pretreatment at 0.1 mg/kg peroral administration. In kind it is functional. As to conditions: in Primates, route oral.

One may read the IC50 as the concentration needed to halve the response being measured. The inhibition in vivo is the percentage by which the read-out fell short of the control. As usually defined, the ED50 is the midpoint of the dose-response relation.

As to `CCC(CSC(CCc1ccccc1-c1nn[nH]n1)c1cccc(OCc2ccc3ccc(Cl)cc3n2)c1)C(=O)[O-].[Na+]` (stereo not drawn), the clearance in [1] was 61 mL/min/kg. Further, the IC50 was 0.5 nM in series [2] and 0.8 nM in series [3].

On to `C[C@@H](CS[C@@H](CCc1ccccc1C(C)(C)O)c1cccc(OCc2ccc3ccc(Cl)cc3n2)c1)C(=O)[O-].[Na+]`, for which the “FACO Activity” value in the series on Mus musculus [4] is reported as -7%. In addition, the Kb in series [5] is 1.58 nM. Besides, the IC50 in series [2] was 7 nM; in [3], 5 nM. In the series with Rattus norvegicus [6], this compound returned an inhibition in vivo at 0.5 mg/kg of 46%.

Turning to `CCC(CSC(CCc1ccccc1C#N)c1cccc(CCc2ccc3ccc(Cl)cc3n2)c1)C(=O)[O-].[Na+]` (stereo not drawn), in series [7], the IC50 stood at 1 nM. For the same compound, the clearance in series [1] was 13 mL/min/kg.

Regarding `CS(=O)(=O)Nc1ccccc1CCC(SCCC(=O)[O-])c1cccc(OCc2ccc3ccc(Cl)cc3n2)c1.[Na+]` (stereo not drawn), in series [1], the clearance was 131 mL/min/kg. In addition, the IC50 in [2] came out at 0.6 nM; in series [3], 0.56 nM.

For the compound `CN(C)C(=O)c1ccccc1CCC(SCCC(=O)O)c1cccc(OCc2ccc3ccc(Cl)cc3n2)c1` (stereo not drawn), in series [7], the IC50 was found to be 0.95 nM.

In series [7], `CC(CSC(CCc1ccccc1C(=O)N(C)C)c1cccc(OCc2ccc3ccc(Cl)cc3n2)c1)C(=O)O` (stereo not drawn) yielded an IC50 of 0.52 nM.

`CC(CCC(SCCC(=O)O)c1cccc(OCc2ccc3ccc(Cl)cc3n2)c1)CC(=O)N(C)C` (stereo not drawn) displayed an IC50 in [7] of 8.6 nM.

As to `CCOC(=O)Nc1ccccc1CCC(SCC(CC)C(=O)[O-])c1cccc(CCc2ccc3ccc(Cl)cc3n2)c1.[Na+]` (stereo not drawn), in series [1], the clearance was 8.8 mL/min/kg. Further, the IC50 in series [2] worked out at 0.6 nM; in [3] it was 0.5 nM.

As to `CN(C)C(=O)CCSC(SCCC(=O)O)c1cccc(CCc2ccc3ccc(Cl)cc3n2)c1` (stereo not drawn), the IC50 in [8] is 36 nM; in series [9], 26 nM.

For `CCC(CSC(CCc1ccccc1S(C)(=O)=O)c1cccc(OCc2ccc3ccc(Cl)cc3n2)c1)C(=O)[O-].[Na+]` (stereo not drawn), the clearance in [1] is 35 mL/min/kg. In addition, the values for the 50% inhibitory concentration (IC50) in [2] and in series [3] were 1 nM and 0.6 nM, respectively.

With `C[C@H](CS[C@H](CCc1ccccc1C(C)(C)O)c1cccc(OCc2ccc3ccc(Cl)cc3n2)c1)C(=O)[O-].[Na+]`, the Kb in series [5] is 0.794 nM. The results for the IC50 in series [2] and in series [3] were 4 nM and 2 nM, respectively. The compound further returned an inhibition in vivo at 0.5 mg/kg in the series on Rattus norvegicus [6] of 62%. In addition, in the series with Mus musculus [10], the “FACO Activity” value is recorded as 128%.

Regarding `CC(CCC(SCCC(=O)O)c1cccc(/C=C/c2ccc3ccc(Cl)cc3n2)c1)CC(=O)N(C)C` (stereo not drawn), the IC50 in series [7] was 1.3 nM.

As to `C[C@H](CS[C@@H](CCc1ccccc1C(C)(C)O)c1cccc(OCc2ccc3ccc(Cl)cc3n2)c1)C(=O)[O-].[Na+]`, in the series with Mus musculus [4], the “FACO Activity” value stood at 10%. The Kb in series [5] was 5.01 nM. For the same compound, the IC50 in [2] came out at 20 nM; in series [3] it was 17 nM. Besides, the inhibition in vivo at 0.5 mg/kg with Rattus norvegicus [6] came out at 47%.

In turn, `CCNC(=O)c1ccccc1CCC(SCC(CC)C(=O)[O-])c1cccc(OCc2ccc3ccc(Cl)cc3n2)c1.[Na+]` (stereo not drawn) registered an IC50 in series [7] of 0.45 nM. The clearance in series [1] is 106 mL/min/kg.

`O=C([O-])CCSC(CCc1ccccc1-c1nc[nH]n1)c1cccc(OCc2ccc3ccc(Cl)cc3n2)c1.[Na+]` (stereo not drawn) returned an IC50 in [7] of 0.36 nM. Moreover, the clearance in series [1] is 64 mL/min/kg.

In series [7], `CC(CSC(CCc1ccccc1C(=O)N(C)CO)c1cccc(OCc2ccc3ccc(Cl)cc3n2)c1)C(=O)O` (stereo not drawn) had an IC50 of 3.6 nM.

Regarding `CCC(CSC(CCc1ccccc1C(N)=O)c1cccc(OCc2ccc3ccc(Cl)cc3n2)c1)C(=O)[O-].[Na+]` (stereo not drawn), the IC50 in series [7] turned out to be 0.47 nM. Besides, the clearance in [1] is 58 mL/min/kg.

Consider `CN(C)C(=O)CCS[C@H](SCCC(=O)O)c1cccc(/C=C/c2ccc3ccc(Cl)cc3n2)c1` [MK-571], for which the IC50 in series [7] came out at 3.9 nM. Also, in series [5], the Kb was 1.58 nM. Moreover, in [11], the clearance is 1.2 mL/min/kg. The inhibition in vivo at 0.1 mg/kg in the series with Monkey [12] is 60%. The same compound displayed an ED50 in the series on Cavia porcellus of 2.8 µg/kg. In addition, the “FACO Activity” value in the series with Mus musculus [10] is given as 62%.

As for `CN(C)C(=O)CCSC(CCc1ccccc1C(=O)O)c1cccc(OCc2ccc3ccc(Cl)cc3n2)c1` (stereo not drawn), the IC50 in series [7] amounted to 1.9 nM. Moreover, the clearance in series [11] was 15 mL/min/kg. The inhibition in vivo at 0.5 mg/kg with Rattus norvegicus [13] came to 54%.

In series [7], `CCC[C@H](CS[C@@H](CCc1ccccc1C(C)(C)O)c1cccc(/C=C/c2ccc3ccc(Cl)cc3n2)c1)C(=O)O` [L-695499] had an IC50 of 0.9 nM. The Kb in series [5] is 1.58 nM. Moreover, the “FACO Activity” value in the series with Mus musculus [14] is recorded as 38%. Moreover, the inhibition in vivo at 0.1 mg/kg in the series on Monkey [15] was determined as 72%. In the series on Cavia porcellus, it took a dose of 2 µg/kg to reach the 50% effect level (ED50).

In turn, `CN(C)C(=O)CCSC(SCCC(=O)O)c1cccc(OCc2ccc3ccc(Cl)cc3n2)c1` (stereo not drawn) came in with an IC50 in [7] of 14 nM.

In turn, `CN(C)C(=O)CCSC(SCCC(=O)O)c1cccc(SCc2ccc3ccc(Cl)cc3n2)c1` (stereo not drawn) displayed an IC50 in series [7] of 75 nM.

As to `CC(CSC(CCc1ccccc1[N+](=O)[O-])c1cccc(OCc2ccc3ccc(Cl)cc3n2)c1)C(=O)[O-].[Na+]` (stereo not drawn), the clearance in series [1] was 12 mL/min/kg. For the same compound, the IC50 in [2] is 0.49 nM; in [3] it was 0.4 nM.

Take `CC(CSC(CCc1ccccc1C(C)(C)O)c1cccc(OCc2ccc3ccc(Cl)cc3n2)c1)C(=O)[O-].[Na+]` (stereo not drawn): in series [1], the clearance is 12 mL/min/kg. Moreover, the IC50 was 0.85 nM in [2] and 0.5 nM in [3].

Regarding `O=C([O-])CCSC(CCc1ccccc1C(=O)N1CCCCC1)c1cccc(OCc2ccc3ccc(Cl)cc3n2)c1.[Na+]` (stereo not drawn), the IC50 in series [7] was 0.6 nM. The clearance in [1] is 55 mL/min/kg.

For `O=C([O-])CCSC(CCc1ccccc1)c1cccc(OCc2ccc3ccc(Cl)cc3n2)c1.[Na+]` (stereo not drawn), the IC50 in series [7] turned out to be 6.5 nM. In addition, the clearance in series [1] was 2.9 mL/min/kg.

On to `CCC(CSC(CCc1ccccc1C(=O)O)c1cccc(OCc2ccc3ccc(Cl)cc3n2)c1)C(=O)[O-].[Na+]` (stereo not drawn), for which the clearance in series [1] is 8.8 mL/min/kg. Moreover, the values for the IC50 in [2] and in series [3] were 1 nM and 2 nM, respectively.

`CCC(CSC(CCc1ccccc1-c1nnnn1C)c1cccc(OCc2ccc3ccc(Cl)cc3n2)c1)C(=O)[O-].[Na+]` (stereo not drawn) gave an IC50 in series [7] of 0.4 nM. The clearance in series [1] is 18 mL/min/kg.

Consider `C[C@@H](CS[C@H](CCc1ccccc1C(C)(C)O)c1cccc(OCc2ccc3ccc(Cl)cc3n2)c1)C(=O)[O-].[Na+]`, for which the Kb in [5] was 0.398 nM. The IC50 was determined as 0.3 nM in series [2] and 0.2 nM in [3]. The inhibition in vivo at 0.5 mg/kg in the series with Rattus norvegicus [6] worked out at 63%. In the series with Mus musculus [10], the “FACO Activity” value is given as 155%.

`CCC(CSC(CCc1ccccc1C(=O)NS(=O)(=O)c1ccccc1C)c1cccc(OCc2ccc3ccc(Cl)cc3n2)c1)C(=O)[O-].[Na+]` (stereo not drawn): the clearance in series [1] was 15 mL/min/kg. Further, the IC50 was found to be 6.5 nM in [2] and 1.4 nM in [3].

As for `NS(=O)(=O)c1ccccc1CCC(SCCC(=O)[O-])c1cccc(OCc2ccc3ccc(Cl)cc3n2)c1.[Na+]` (stereo not drawn), the clearance in series [1] was 106 mL/min/kg. In addition, the IC50 in series [2] came out at 0.6 nM; in [3], 0.4 nM.

`CC(CSC(CCc1ccccc1C(C)C)c1cccc(OCc2ccc3ccc(Cl)cc3n2)c1)C(=O)[O-].[Na+]` (stereo not drawn) returned an IC50 in series [7] of 6.3 nM. Moreover, the clearance in [1] was 2.2 mL/min/kg.

`CN(C)C(=O)c1ccccc1CCC(SCCC(=O)[O-])c1cccc(OCc2ccc3ccc(Cl)cc3n2)c1.[Na+]` (stereo not drawn) yielded an IC50 in series [7] of 0.95 nM. Moreover, the clearance in [1] is 64 mL/min/kg.
